Test [1] concerns the target Histone deacetylase. Kind of test: Inhibition of HDAC activity in HeLa cell nuclear extract by fluorescent assay. It counts as protein assay, Homo sapiens.
Test [2] deals with MCF7. Put plainly: Antiproliferative activity against human MCF7 cells. The format is functional.

Some results are limits rather than exact numbers.

Broadly, the IC50 is the concentration at which inhibition is half-maximal. Read a high IC50 as a need for much substance. For orientation: GI50 means the concentration at which growth is held to half of that of the control. In turn, `CC(=O)N1CCN(c2ncc(C(=O)NO)s2)CC1` came in with an IC50 in test [1] of 2.8 µM. For the same compound, the GI50 in test [2] is greater than 100 µM.

Consider `O=C(NO)c1cnc(N2CCN(CCc3ccccc3)CC2)s1`, for which the IC50 in test [1] was greater than 100 µM. In test [2], this compound returned a GI50 greater than 100 µM.

With `O=C(NO)c1cnc(N2CCN(S(=O)(=O)c3ccc(-c4ccccc4)cc3)CC2)s1`, the IC50 in test [1] was 0.2 µM. Moreover, in test [2], it took 1.8 µM to inhibit growth by half (GI50).

`O=C(/C=C/c1cnc(N2CCN(S(=O)(=O)c3ccc4ccccc4c3)CC2)s1)NO` displayed an IC50 in test [1] of 0.05 µM. In test [2], this compound gave a GI50 of 0.7 µM.

`O=C(/C=C/c1cnc(N2CCN(S(=O)(=O)c3ccc(C(F)(F)F)cc3)CC2)s1)NO`: in test [1], the half-inhibitory concentration (IC50) came to 15 µM. The compound also displayed a GI50 in test [2] of 3 µM.

The compound `Cc1ccc(S(=O)(=O)N2CCN(c3ncc(/C=C/C(=O)NO)s3)CC2)cc1` came in with an IC50 in test [1] of 0.55 µM. In test [2], this compound registered a GI50 of 2 µM.

As for `COc1ccc(S(=O)(=O)N2CCN(c3ncc(/C=C/C(=O)NO)s3)CC2)cc1OC`, in test [1], the IC50 was found to be 0.16 µM. For the same compound, in test [2], growth was halved (GI50) at 4 µM.

Regarding `O=C(/C=C/c1cnc(N2CCN(S(=O)(=O)c3ccccc3)CC2)s1)NO`, the IC50 in test [1] is 0.44 µM. In test [2], this compound returned a GI50 of 3 µM.

The compound `O=C(/C=C/c1cnc(N2CCN(S(=O)(=O)c3ccc(OC(F)(F)F)cc3)CC2)s1)NO` showed an IC50 in test [1] of 3.2 µM. This compound also gave a GI50 in test [2] of 6 µM.

In test [1], `O=C(NO)c1cnc(N2CCN(C(=O)Cc3ccccc3)CC2)s1` had an IC50 of 32 µM. Further, the GI50 in test [2] amounted to 20 µM.

`O=C(NO)c1cnc(N2CCN(S(=O)(=O)c3ccc4ccccc4c3)CC2)s1`: the IC50 in test [1] was found to be 0.22 µM. The compound further showed a 50% growth inhibitory concentration (GI50) in test [2] of 2 µM.

`CN1CCN(c2ncc(C(=O)NO)s2)CC1`: the IC50 in test [1] is greater than 100 µM. The same compound had a GI50 in test [2] greater than 100 µM.

In test [1], `O=C(/C=C/c1cnc(N2CCN(S(=O)(=O)c3ccc(-c4ccccc4)cc3)CC2)s1)NO` had a 50% inhibitory concentration (IC50) of 11 µM. Halving of growth in test [2] (GI50) required 15 µM.

The compound `O=C(/C=C/c1cnc(N2CCN(S(=O)(=O)c3ccc([N+](=O)[O-])cc3)CC2)s1)NO` displayed an IC50 in test [1] of 1.6 µM. The compound further displayed a 50% growth inhibitory concentration (GI50) in test [2] of 5 µM.

`O=C(NO)c1cnc(N2CCN(Cc3ccccc3)CC2)s1` showed an IC50 in test [1] greater than 100 µM. The compound also registered a GI50 in test [2] of 4 µM.

`O=C(NO)c1cnc(N2CCN(S(=O)(=O)c3ccc(F)cc3)CC2)s1`: the IC50 in test [1] is 0.15 µM. The GI50 in test [2] stood at 3.5 µM.

Consider `O=C(NO)c1cnc(N2CCN(S(=O)(=O)c3ccc([N+](=O)[O-])cc3)CC2)s1`, for which, in test [1], the IC50 worked out at 0.4 µM. In test [2], this compound showed a GI50 of 10 µM.

In turn, `O=C(/C=C/c1cnc(N2CCN(S(=O)(=O)c3ccc(F)cc3)CC2)s1)NO` came in with an IC50 in test [1] of 4.7 µM. For the same compound, in test [2], the GI50 amounted to 2.5 µM.

With `O=C(NO)c1cnc(N2CCN(C(=O)c3ccccc3)CC2)s1`, in test [1], the IC50 was determined as 3.5 µM. In test [2], this compound showed a GI50 of 40 µM.

`COc1ccc(S(=O)(=O)N2CCN(c3ncc(C(=O)NO)s3)CC2)cc1OC`: the IC50 in test [1] amounted to 0.07 µM. This compound also registered a GI50 in test [2] of 2 µM.

In test [1], `Cc1ccc(S(=O)(=O)N2CCN(c3ncc(C(=O)NO)s3)CC2)cc1` gave an IC50 of 0.09 µM. Moreover, in test [2], the GI50 was 0.35 µM.

In test [1], `O=C(NO)c1cnc(N2CCN(S(=O)(=O)c3ccccc3)CC2)s1` yielded an IC50 of 0.57 µM. This compound displayed a GI50 in test [2] of 10 µM.

Take `O=C(NO)c1cnc(N2CCN(S(=O)(=O)c3ccc(OC(F)(F)F)cc3)CC2)s1`: in test [1], the IC50 turned out to be 1.2 µM. In addition, the GI50 in test [2] came out at 4 µM.

`O=C(NO)c1cnc(N2CCN(S(=O)(=O)c3ccc(C(F)(F)F)cc3)CC2)s1` gave an IC50 in test [1] of 2.6 µM. This compound came in with a 50% growth inhibitory concentration (GI50) in test [2] of 4 µM.

(Values after ChEMBL document CHEMBL1140461, “Design and synthesis of thiazole-5-hydroxamic acids as novel histone deacetylase inhibitors” (Bioorg Med Chem Lett, 2007).)
